Results from ChEMBL document CHEMBL3639186, “Modulators of serotonin receptor” (2013).

Target: 5-hydroxytryptamine receptor 7 (Rattus norvegicus, UniProt P32305)
Assay: Biological Assay: Compound affinity for the rat 5-HT7 receptor subtype was evaluated by competitive radioligand binding assay using 5-carboxamido[H3]typtamine ([3H]5-CT)(Amersham Biosciences) detection.

Chain of 5-hydroxytryptamine receptor 7 (P32305 whole entry): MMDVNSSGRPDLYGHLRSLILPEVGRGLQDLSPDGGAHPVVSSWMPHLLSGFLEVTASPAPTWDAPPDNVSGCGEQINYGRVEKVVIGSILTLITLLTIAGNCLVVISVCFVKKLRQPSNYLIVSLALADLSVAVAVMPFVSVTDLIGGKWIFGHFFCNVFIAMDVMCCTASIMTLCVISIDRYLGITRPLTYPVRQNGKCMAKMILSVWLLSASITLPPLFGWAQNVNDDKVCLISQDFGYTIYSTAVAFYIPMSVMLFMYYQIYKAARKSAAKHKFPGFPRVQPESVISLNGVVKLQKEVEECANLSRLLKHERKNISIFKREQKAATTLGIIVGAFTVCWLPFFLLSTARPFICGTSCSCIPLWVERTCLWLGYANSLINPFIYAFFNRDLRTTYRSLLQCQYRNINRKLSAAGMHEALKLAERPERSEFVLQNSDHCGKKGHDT

Ki: ≥ 10 µM
SMILES: Cc1cc(C#N)c(OC2CNC2)cc1-c1ccccc1
